In patent US20260315454A1, “Use of quinoline-4-carboxylic acid in the preparation of anti-aging product as well as product for protecting liver and promoting liver regeneration” (Guangzhou Riju Trade Development Co., Ltd., priority 2023, published 2026):

Tests used:
[1] = tested on: C57BL6/J mice older than 18 months; test: ⅔ partial hepatectomy model in old mice, Ki67 immunohistochemical staining of liver; format: in vivo; conditions: 5 mg/kg QCA intraperitoneally 2 h before and 24 h, 48 h and 72 h after ⅔PHx
Experimental: (§1) (8) Establishment of ⅔ partial hepatectomy model in old mice (⅔PHx): C57BL6/J mice older than 18 months were anesthetized with 2% isoflurane by inhalation and underwent a median abdominal incision. The left external and median lobes of the liver were resected separately with 4-0 silk sutures, and the associated vessels and bile ducts were ligated. Mice were injected intraperitoneally with 5 mg/kg QCA or an equal volume of DMSO 2 h before ⅔PHx surgery, and 24 h, 48 h and 72 h after ⅔PHx surgery, respectively. Mice were sacrificed at 6 h, 48 h and 168 h after surgery, respectively, and liver specimens and plasma were collected. The postoperative survival time of mice was recorded and used to plot survival curves. Mice were weighed in advance and livers were weighed after liver extraction so that the liver to body weight ratio could be calculated. Concentrations of alanine aminotransferase (ALT), aspartate aminotransferase (AST), and lactate dehydrogenase (LDH) in plasma were measured using a HITACHI 7600 Series (Japan) biochemical detector. Mouse liver samples collected at specific time points were fixed in 4% paraformaldehyde overnight and then embedded in paraffin. […]

[2] = tested on: 21 month-old C57BL6/J mice; test: observation of coat status and dermatitis in old mice; format: in vivo; conditions: 5 mg/kg QCA by consecutive gavage for 4 months
Experimental: (§2) (7) 21 month-old C57BL6/J mice were randomly divided into control and QCA groups. 0.9% saline was given to the control group (n=7 for male mice, and n=12 for female mice); and 5 mg/kg QCA was given to the QCA group (n=9 for male mice, and n=13 for female mice) by consecutive gavage for 4 months. […] The test mice were placed on the grip strength meter and the tail of the mice was gently pulled, so that the mice grasped the probe forcefully with the forelimbs and hindlimbs. The readings on the grip strength meter were recorded when the mice exerted the maximum force, the arm strength value in mice were obtained by averaging 3 repetitions of the measurements, and the results were shown in FIG. 7B. Blood was taken from the tail vein of mice 4 months after administration by gavage, the proportion of neutrophils (NEU) was measured by routine blood test, and the results were shown in FIG. 7C. […] The mice were examined periodically for the presence of spontaneous tumors, and the number of mice with spontaneous tumors in each group was recorded. […] Concentrations of alanine aminotransferase (ALT), aspartate aminotransferase (AST), and lactate dehydrogenase (LDH) in plasma were measured using a HITACHI 7600 Series (Japan) biochemical detector, and the results were shown in FIG. 7F. […]

[3] = tested on: C57BL6/J mice older than 18 months; test: ⅔ partial hepatectomy model in old mice, plasma ALT, AST and LDH; format: in vivo; conditions: 5 mg/kg QCA intraperitoneally 2 h before and 24 h, 48 h and 72 h after ⅔PHx
Experimental: as §1

[4] = tested on: fruit flies; test: tube-climbing test of fruit flies; format: in vivo; conditions: 20 male fruit flies; 17.5 cm marker; performance at 120 s
[5] = tested on: 21 month-old C57BL6/J mice; test: plasma ALT, AST and LDH in old mice; format: in vivo; conditions: aged mice, 5 mg/kg QCA by consecutive gavage for 4 months
Experimental: as §2

[6] = tested on: 21 month-old C57BL6/J mice; test: survival curves of old mice; format: in vivo; conditions: 5 mg/kg QCA by gavage; Ctrl (n=19) and QCA (n=26)
Experimental: (7) 21 month-old C57BL6/J mice were randomly divided into control and QCA groups. […] The test mice were placed on the grip strength meter and the tail of the mice was gently pulled, so that the mice grasped the probe forcefully with the forelimbs and hindlimbs. The readings on the grip strength meter were recorded when the mice exerted the maximum force, the arm strength value in mice were obtained by averaging 3 repetitions of the measurements, and the results were shown in FIG. 7B. Blood was taken from the tail vein of mice 4 months after administration by gavage, the proportion of neutrophils (NEU) was measured by routine blood test, and the results were shown in FIG. 7C. […] The mice were examined periodically for the presence of spontaneous tumors, and the number of mice with spontaneous tumors in each group was recorded. […] Concentrations of alanine aminotransferase (ALT), aspartate aminotransferase (AST), and lactate dehydrogenase (LDH) in plasma were measured using a HITACHI 7600 Series (Japan) biochemical detector, and the results were shown in FIG. 7F. Survival times were recorded to make the survival curves of the mice in the Ctrl (n=19) and QCA (n=26) groups, and the results were shown in FIG. 7G.

[7] = tested on: C57BL6/J mice older than 18 months; test: ⅔ partial hepatectomy model in old mice, liver to body weight ratio; format: in vivo; conditions: 5 mg/kg QCA intraperitoneally
Experimental: (8) Establishment of ⅔ partial hepatectomy model in old mice (⅔PHx): C57BL6/J mice older than 18 months were anesthetized with 2% isoflurane by inhalation and underwent a median abdominal incision. The left external and median lobes of the liver were resected separately with 4-0 silk sutures, and the associated vessels and bile ducts were ligated. Mice were injected intraperitoneally with 5 mg/kg QCA or an equal volume of DMSO 2 h before ⅔PHx surgery, and 24 h, 48 h and 72 h after ⅔PHx surgery, respectively. Mice were sacrificed at 6 h, 48 h and 168 h after surgery, respectively, and liver specimens and plasma were collected. The postoperative survival time of mice was recorded and used to plot survival curves. Mice were weighed in advance and livers were weighed after liver extraction so that the liver to body weight ratio could be calculated. Concentrations of alanine aminotransferase (ALT), aspartate aminotransferase (AST), and lactate dehydrogenase (LDH) in plasma were measured using a HITACHI 7600 Series (Japan) biochemical detector. Mouse liver samples collected at specific time points were fixed in 4% paraformaldehyde overnight and then embedded in paraffin. A 3 μm-thick paraffin section was made for subsequent Ki67 immunohistochemical staining, and the specific procedure was as follows: after subjecting to antigen repairing in EDTA (pH 8.0), the sections were incubated with a primary antibody overnight at 4° C., and then incubated with a secondary antibody at 37° C. for 1 h. Sections were stained with diaminobenzidine and hematoxylin, and then visualized and imaged with an optical microscope.

[8] = tested on: 21 month-old C57BL6/J mice; test: grip strength meter, arm strength of old mice; format: in vivo; conditions: 5 mg/kg QCA by consecutive gavage for 4 months
Experimental: as §2

[9] = tested on: High-generation MSCs (Old MSCs); test: Ki67 immunofluorescence staining of high-generation mesenchymal stem cells; format: cell-based; conditions: P10-15 MSCs; 50 μM and 200 μM QCA for 72 h
Experimental: (§3) 4. High-generation MSCs (Old MSCs) at P10-15 were plated in a 96 plate, and 50 μM, 100 μM, and 200 μM of QCA were added to the medium, respectively. The medium without adding QCA was used as a control. Low-generation MSCs (Young MSCs) at P4-7, high-generation MSCs (Old MSCs) at P10-15, as well as high-generation MSCs respectively treated with 50 μM and 200 μM QCA for 72 h, were subjected to Ki67 immunofluorescence staining, and the results were shown in FIG. 4B.

[10] = tested on: High-generation MSCs (Old MSCs); test: β-Gal staining of high-generation mesenchymal stem cells; format: cell-based; conditions: 50 μM QCA all the time, passaged for 3 consecutive generations
Experimental: (§4) 5. Low-generation MSCs (Young MSCs) at P4-7, high-generation MSCs (Old MSCs) at P10-15, as well as old MSCs respectively treated with 50 μM and 200 μM QCA for 72 h were subjected to TUNEL staining, and the results were shown in FIG. 5A. Old MSCs with 50 μM QCA were added to the medium all the time (a fresh medium containing QCA was changed every 2-3 days), and the medium without adding QCA was used as a control. The cells were passaged for 3 consecutive generations (passaged when the cells were 80-90% confluent) before being used for β-Gal staining tests, and the results were shown in FIG. 5B.

[11] = tested on: C57BL6/J mice older than 18 months; test: ⅔ partial hepatectomy model in old mice, survival; format: in vivo; conditions: 5 mg/kg QCA intraperitoneally 2 h before and 24 h, 48 h and 72 h after ⅔PHx
Experimental: as §1

[12] = tested on: High-generation MSCs (Old MSCs); test: TUNEL staining of high-generation mesenchymal stem cells; format: cell-based; conditions: P10-15 MSCs; 50 μM and 200 μM QCA for 72 h
Experimental: as §4

[13] = tested on: W1118 fruit flies; test: lifespan test for fruit flies (survival curves); format: in vivo; conditions: male W1118; 115 μL of QCA (100 mM, 2 mg QCA/tube) in medium; days 20-30 and 40-50
Experimental: (6) The regular medium for rearing fruit flies was added with a preservative and dispensed. After which, 115 μL of QCA (100 mM, equivalent to 2 mg QCA/tube) was added dropwise to the medium, and the same volume of 95% ethanol was added to the control tube. On days 20-30 and 40-50 of fruit flies rearing, the tubes were replaced with QCA-containing rearing tubes for rearing. 3 male W1118 fruit flies and 3 virgin W1118 fruit flies were added to each rearing tube and bred for 3-5 days for a total of 20 tubes. The parental fruit flies were cleared after about 5-6 days, and then adult occurred in about 10 days. A round of picking male fruit flies within 1 day after emergence was performed at a fixed time point each day for a total of 400 fruit flies, in which 20 fruit flies were placed in each tube labeled with the name, date, and number for a total of 20 tubes. Fruit flies were reared at 25° C., 50% humidity and 12 h light/12 h dark, the number of dead fruit flies in the tubes was counted and recorded every day, and the rearing tubes were changed every 3-4 days. The lifespan test for fruit flies in each group needed to be repeated three times independently and the recordings were entered into statistical software for analysis.

[14] = tested on: 21 month-old C57BL6/J mice; test: chronic inflammation in old mice (proportion of neutrophils by routine blood test, serum TNF-α by ELISA); format: in vivo; conditions: 5 mg/kg QCA by consecutive gavage for 4 months
Experimental: as §2

[15] = tested on: High-generation MSCs (Old MSCs); test: CCK8 assay, proliferation of high-generation mesenchymal stem cells; format: cell-based; conditions: P10-15 MSCs; 50 μM, 100 μM, and 200 μM QCA in the medium
Experimental: as §3

O=C(O)c1ccnc2ccccc12 [quinoline-4-carboxylic acid]
Ki67-positive cells of liver tissue (immunohistochemical staining) [1]: more Ki67-positive cells of liver tissue in the QCA group | symptoms such as poor coat and dermatitis [2]: can reduce the symptoms such as poor coat and dermatitis in old mice | enzymatic indexes of liver injury (ALT, AST, LDH) after hepatectomy [3]: attenuates the enzymatic indexes of liver injury | exercise capacity (tube-climbing test) [4]: enhances their exercise capacity | enzymatic indexes of liver injury (ALT, AST, LDH) [5]: down-regulate the chronic inflammation and enzymatic indexes of liver injury in aged mice | lifespan of the mice (survival curves) [6]: prolong the lifespan of the mice | regenerative liver to body weight ratio at 6 h ([7]; 6 h after hepatectomy): does not significantly increase | regenerative liver to body weight ratio at 48 h ([7]; 48 h after hepatectomy): significantly increases | regenerative liver to body weight ratio at 168 h ([7]; 168 h after hepatectomy): does not significantly increase | arm strength (reflecting the muscle strength) [8]: enhance the arm strength | cell proliferation (Ki67 immunofluorescence staining) [9]: can promote cell proliferation | cell aging (β-Gal staining) [10]: retards cell aging | survival rate of mice after hepatectomy [11]: improves the survival rate of mice after hepatectomy | nuclear DNA breakage (TUNEL staining) [12]: reduces nuclear DNA breakage | lifespan of fruit flies (survival curves) [13]: prolongs the lifespan of fruit flies | chronic inflammation (neutrophils, TNF-α) [14]: down-regulate the chronic inflammation | cell proliferation (CCK8 assay) [15]: can promote cell proliferation
